Results published in paper PMC3062473 (ChemMedChem, 2010).

What was measured:
Caspase 7 [1] = biological target: T1, Caspase 7 (Homo sapiens, UniProt P55210); conditions: cited from earlier work
T1 sequence (P55210 24-198 limits assumed): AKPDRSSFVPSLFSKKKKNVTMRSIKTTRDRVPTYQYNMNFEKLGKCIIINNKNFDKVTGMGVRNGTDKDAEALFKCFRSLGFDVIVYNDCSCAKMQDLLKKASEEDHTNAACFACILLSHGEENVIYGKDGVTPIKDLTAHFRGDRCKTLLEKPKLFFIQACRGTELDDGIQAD
T1 sequence (P55210 207-303 limits assumed): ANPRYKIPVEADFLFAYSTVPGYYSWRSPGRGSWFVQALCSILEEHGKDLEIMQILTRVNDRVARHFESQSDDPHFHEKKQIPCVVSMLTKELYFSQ

cathepsin B = conditions: cited from earlier work
caspase 1 [2] = biological target: T2, caspase 1 (Homo sapiens, UniProt P29466); conditions: read-out: Ki caspase 1; cited from earlier work
T2 sequence (P29466 120-297 limits assumed): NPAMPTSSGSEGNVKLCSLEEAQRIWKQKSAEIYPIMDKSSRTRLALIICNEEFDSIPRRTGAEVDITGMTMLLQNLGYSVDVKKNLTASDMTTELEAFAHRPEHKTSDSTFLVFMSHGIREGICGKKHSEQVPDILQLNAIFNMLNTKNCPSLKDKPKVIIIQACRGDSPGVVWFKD
T2 sequence (P29466 317-404 limits assumed): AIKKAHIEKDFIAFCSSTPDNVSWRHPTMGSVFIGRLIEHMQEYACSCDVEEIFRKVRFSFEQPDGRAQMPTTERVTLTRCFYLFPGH

caspase 1 [3] = biological target: T2, caspase 1; assay: Reaction Biology caspase panel; type: biochemical; conditions: read-out: Caspase 1 IC50; (Z-LEHD)2-R110 substrate; three separate experiments
trypsin = conditions: cited from earlier work
Caspase 8 = Caspase 8 (Homo sapiens, UniProt Q14790); assay: Reaction Biology caspase panel; type: biochemical; conditions: read-out: Caspase 8 IC50; (Z-LEHD)2-R110 substrate; three separate experiments
Caspase 14 = biological target: T3, Caspase 14 (Homo sapiens, UniProt P31944); assay: Reaction Biology caspase panel; type: biochemical; conditions: read-out: Caspase 14 IC50; (Z-LEHD)2-R110 substrate; three separate experiments
T3 sequence (P31944 6-146 limits assumed): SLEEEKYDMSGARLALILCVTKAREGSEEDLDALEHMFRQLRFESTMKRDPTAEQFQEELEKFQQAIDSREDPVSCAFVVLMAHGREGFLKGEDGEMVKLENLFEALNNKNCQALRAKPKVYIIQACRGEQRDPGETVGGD
T3 sequence (P31944 153-242 limits assumed): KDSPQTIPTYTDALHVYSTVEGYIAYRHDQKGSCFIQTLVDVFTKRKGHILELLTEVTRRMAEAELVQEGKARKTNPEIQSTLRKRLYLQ

Caspase 3 [4] = biological target: T4, Caspase 3 (Homo sapiens, UniProt P42574); conditions: cited from earlier work
T4 sequence (P42574 29-175 limits assumed): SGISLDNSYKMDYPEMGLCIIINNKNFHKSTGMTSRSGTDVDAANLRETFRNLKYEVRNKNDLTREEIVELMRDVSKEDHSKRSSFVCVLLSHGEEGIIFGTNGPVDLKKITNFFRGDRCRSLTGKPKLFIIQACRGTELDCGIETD
T4 sequence (P42574 176-277 limits assumed): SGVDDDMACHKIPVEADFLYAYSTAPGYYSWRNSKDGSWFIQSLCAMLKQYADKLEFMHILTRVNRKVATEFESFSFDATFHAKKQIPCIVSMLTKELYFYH

Caspase 6 = biological target: T5, Caspase 6 (Homo sapiens, UniProt P55212); conditions: read-out: Ki caspase 6; cited from earlier work
T5 sequence (P55212 24-179 limits assumed): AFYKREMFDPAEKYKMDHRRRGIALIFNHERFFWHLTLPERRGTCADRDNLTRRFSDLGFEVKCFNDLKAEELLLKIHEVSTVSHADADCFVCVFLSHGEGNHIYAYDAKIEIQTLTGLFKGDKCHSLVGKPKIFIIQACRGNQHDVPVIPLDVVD
T5 sequence (P55212 194-293 limits assumed): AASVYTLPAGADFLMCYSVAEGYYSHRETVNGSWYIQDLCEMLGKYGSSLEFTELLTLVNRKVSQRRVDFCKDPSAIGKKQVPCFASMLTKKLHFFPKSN

Caspase 4 = biological target: T6, Caspase 4 (Homo sapiens, UniProt P49662); assay: Reaction Biology caspase panel; type: biochemical; conditions: read-out: Caspase 4 IC50; (Z-LEHD)2-R110 substrate; three separate experiments
T6 sequence (P49662 81-270 limits assumed): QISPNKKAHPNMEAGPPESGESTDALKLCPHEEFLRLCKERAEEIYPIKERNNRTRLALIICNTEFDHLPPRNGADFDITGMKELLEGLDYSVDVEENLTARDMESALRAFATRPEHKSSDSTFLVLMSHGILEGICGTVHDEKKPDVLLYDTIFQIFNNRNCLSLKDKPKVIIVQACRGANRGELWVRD
T6 sequence (P49662 290-377 limits assumed): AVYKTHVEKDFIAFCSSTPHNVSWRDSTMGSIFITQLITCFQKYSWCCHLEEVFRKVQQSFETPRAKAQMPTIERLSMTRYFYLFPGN

Caspase 9 [5] = biological target: T7, Caspase 9 (Homo sapiens, UniProt P55211); assay: Reaction Biology caspase panel; type: biochemical; conditions: read-out: Caspase 9 IC50; (Z-LEHD)2-R110 substrate; three separate experiments
T7 sequence (P55211 1-315 limits assumed): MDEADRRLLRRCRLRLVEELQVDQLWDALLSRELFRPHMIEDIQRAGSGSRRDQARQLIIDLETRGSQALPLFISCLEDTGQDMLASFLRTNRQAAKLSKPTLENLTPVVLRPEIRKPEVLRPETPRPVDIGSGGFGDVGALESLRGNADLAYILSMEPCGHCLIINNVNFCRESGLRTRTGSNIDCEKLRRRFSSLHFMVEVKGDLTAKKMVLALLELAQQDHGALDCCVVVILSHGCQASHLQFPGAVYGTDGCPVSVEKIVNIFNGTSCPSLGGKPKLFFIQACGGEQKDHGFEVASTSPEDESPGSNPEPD
T7 sequence (P55211 331-416 limits assumed): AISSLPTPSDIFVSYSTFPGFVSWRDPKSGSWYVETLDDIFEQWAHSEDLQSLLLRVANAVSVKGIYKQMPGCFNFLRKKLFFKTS

Caspase 9 [6] = biological target: T7, Caspase 9; conditions: read-out: Ki caspase 9; cited from earlier work
Caspase 7 [7] = biological target: T1, Caspase 7; assay: Reaction Biology caspase panel; type: biochemical; conditions: read-out: Caspase 7 IC50; (Z-DEVD)2-R110 substrate; three separate experiments
Caspase 3 [8] = biological target: T4, Caspase 3; assay: Reaction Biology caspase panel; type: biochemical; conditions: read-out: Caspase 3 IC50; (Z-DEVD)2-R110 substrate; three separate experiments

Chain of Caspase 8 (Q14790 217-374 limits assumed): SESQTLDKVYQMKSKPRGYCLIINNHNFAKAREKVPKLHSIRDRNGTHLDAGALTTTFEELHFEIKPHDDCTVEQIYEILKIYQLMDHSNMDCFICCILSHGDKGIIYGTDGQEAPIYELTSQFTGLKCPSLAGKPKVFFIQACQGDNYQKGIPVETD
Chain of Caspase 8 (Q14790 385-479 limits assumed): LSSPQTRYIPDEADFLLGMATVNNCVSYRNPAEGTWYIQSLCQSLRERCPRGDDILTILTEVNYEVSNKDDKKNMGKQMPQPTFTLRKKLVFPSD

IC50 (caspase 1 [3]): 0.204 nM | IC50 (Caspase 8): 3.3 nM | IC50 (Caspase 14): 58.5 nM | IC50 (Caspase 4): 14.5 nM | IC50 (Caspase 9 [5]): 5.07 nM | IC50 (Caspase 7 [7]): > 10000 nM | IC50 (Caspase 3 [8]): > 10000 nM
SMILES: CC(C)(C)[C@H](NC(=O)c1ccc(N)c(Cl)c1)C(=O)N1CCC[C@H]1C(=O)N[C@H](C=O)CC(=O)O [Compound 2b, reference compound]
activity against caspase 7 (Caspase 7 [1]): little activity | activity against cathepsin B (cathepsin B): little activity | Ki (caspase 1 [2]): < 1 nM | activity against trypsin (trypsin): little activity | activity against caspase 3 (Caspase 3 [4]): little activity | Ki (Caspase 6): 560 nM | Ki (Caspase 9 [6]): 1030 nM
